Blank lines part the entries; values can stand above or below the molecule they belong to. Activity calls are given as the source filed them.
Key:
Phospholipase D2 = Phospholipase D2 (Homo sapiens, UniProt O14939); experiment: cellular phospholipase D2 inhibition IC50 – cell-based, dose response (AID 602147); type: functional;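 also: cellular assay in HEK293 cells overexpressing GFP-tagged PLD2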
Phospholipase D1 = Phospholipase D1 (Homo sapiens, UniProt Q13393); experiment: cellular phospholipase D1 inhibition IC50 – cell-based, dose response (AID 602151); type: functional;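 also: cellular PLD1 assay in Calu-1 cells stimulated with PMA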
Phospholipase D1, sequence (Q13393 whole entry): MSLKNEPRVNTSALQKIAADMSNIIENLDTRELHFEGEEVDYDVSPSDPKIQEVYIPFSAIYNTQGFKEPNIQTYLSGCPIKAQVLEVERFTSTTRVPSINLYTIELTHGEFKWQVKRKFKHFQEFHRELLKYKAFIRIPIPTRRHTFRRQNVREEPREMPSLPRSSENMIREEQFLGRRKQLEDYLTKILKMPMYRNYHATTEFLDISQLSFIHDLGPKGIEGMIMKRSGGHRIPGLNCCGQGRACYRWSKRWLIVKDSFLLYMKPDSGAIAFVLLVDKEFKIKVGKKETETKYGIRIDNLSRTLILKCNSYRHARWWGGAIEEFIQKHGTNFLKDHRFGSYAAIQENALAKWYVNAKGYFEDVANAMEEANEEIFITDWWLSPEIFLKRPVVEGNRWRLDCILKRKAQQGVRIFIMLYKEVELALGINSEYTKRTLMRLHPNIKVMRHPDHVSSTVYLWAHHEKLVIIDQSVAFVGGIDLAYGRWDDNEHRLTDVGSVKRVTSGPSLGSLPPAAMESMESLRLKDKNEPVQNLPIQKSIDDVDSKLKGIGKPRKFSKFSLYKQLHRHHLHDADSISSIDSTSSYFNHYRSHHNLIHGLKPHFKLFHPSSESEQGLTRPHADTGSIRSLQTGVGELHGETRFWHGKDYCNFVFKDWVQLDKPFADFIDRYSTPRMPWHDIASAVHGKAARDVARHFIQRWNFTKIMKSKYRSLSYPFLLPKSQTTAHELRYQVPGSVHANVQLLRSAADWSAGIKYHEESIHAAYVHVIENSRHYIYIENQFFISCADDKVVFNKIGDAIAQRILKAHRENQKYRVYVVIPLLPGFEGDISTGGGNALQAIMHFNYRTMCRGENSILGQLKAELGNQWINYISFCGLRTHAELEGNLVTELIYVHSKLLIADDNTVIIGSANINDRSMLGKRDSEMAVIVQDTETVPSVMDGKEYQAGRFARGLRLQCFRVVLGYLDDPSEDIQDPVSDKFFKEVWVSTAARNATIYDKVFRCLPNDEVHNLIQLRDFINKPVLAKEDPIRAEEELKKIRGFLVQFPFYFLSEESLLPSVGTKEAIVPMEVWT

[1] = biological target: Sphingosine 1-phosphate receptor 5 (Homo sapiens, UniProt Q9H228); experiment: activation of human S1P5 receptor – cell-based, fluorescence, set 2, counter-screen for S1P4 agonist project, late-stage follow-up (AID 504867); type: functional
Sphingosine 1-phosphate receptor 5, sequence (Q9H228 whole entry): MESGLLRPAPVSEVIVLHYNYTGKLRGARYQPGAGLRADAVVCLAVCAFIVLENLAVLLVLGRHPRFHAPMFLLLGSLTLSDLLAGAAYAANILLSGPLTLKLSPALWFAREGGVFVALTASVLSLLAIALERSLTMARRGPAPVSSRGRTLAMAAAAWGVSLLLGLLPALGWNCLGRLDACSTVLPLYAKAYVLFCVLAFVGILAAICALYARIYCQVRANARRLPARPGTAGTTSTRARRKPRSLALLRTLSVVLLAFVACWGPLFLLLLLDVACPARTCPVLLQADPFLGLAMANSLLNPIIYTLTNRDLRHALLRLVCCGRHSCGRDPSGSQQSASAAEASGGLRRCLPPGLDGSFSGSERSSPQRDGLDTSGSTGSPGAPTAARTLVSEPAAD

[2] = biological target: Sphingosine 1-phosphate receptor 3 (Homo sapiens, UniProt Q99500); experiment: Late-stage fluorescence-based dose-response cell-based counterscreen assay to identify agonists of the Sphingosine 1-Phosphate Receptor 4 (S1P4): Sphingosine 1-Phosphate Receptor 3 (S1P3) agonist assay Set 2.; type: functional
Sphingosine 1-phosphate receptor 3, sequence (Q99500 whole entry): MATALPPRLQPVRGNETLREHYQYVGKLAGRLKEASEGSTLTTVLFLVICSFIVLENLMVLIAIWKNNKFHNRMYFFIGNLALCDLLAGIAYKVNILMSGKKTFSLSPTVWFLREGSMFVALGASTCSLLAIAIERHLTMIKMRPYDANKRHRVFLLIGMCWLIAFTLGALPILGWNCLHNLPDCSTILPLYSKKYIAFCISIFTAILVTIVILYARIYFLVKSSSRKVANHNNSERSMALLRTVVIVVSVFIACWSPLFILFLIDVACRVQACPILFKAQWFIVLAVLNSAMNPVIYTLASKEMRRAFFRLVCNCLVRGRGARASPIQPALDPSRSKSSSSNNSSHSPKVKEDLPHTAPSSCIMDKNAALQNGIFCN

[3] = biological target: Sphingosine 1-phosphate receptor 1 (Homo sapiens, UniProt P21453); experiment: Late-stage fluorescence-based dose-response cell-based counterscreen assay to identify agonists of the Sphingosine 1-Phosphate Receptor 4 (S1P4): Sphingosine 1-Phosphate Receptor 1 (S1P1) agonist assay Set 2.; type: functional
[4] = biological target: Homeodomain-interacting protein kinase 2 (Homo sapiens, UniProt Q9H2X6); type: functional;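 also: measured within a kinome-wide kinase profiling panel, HIPK2 being one panel member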
[5] = biological target: Glycogen synthase kinase-3 beta (Homo sapiens, UniProt P49841); type: functional;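 also: value comes from a broad kinome profiling panel, with GSK3B as the panel member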
Glycogen synthase kinase-3 beta, sequence (P49841 whole entry): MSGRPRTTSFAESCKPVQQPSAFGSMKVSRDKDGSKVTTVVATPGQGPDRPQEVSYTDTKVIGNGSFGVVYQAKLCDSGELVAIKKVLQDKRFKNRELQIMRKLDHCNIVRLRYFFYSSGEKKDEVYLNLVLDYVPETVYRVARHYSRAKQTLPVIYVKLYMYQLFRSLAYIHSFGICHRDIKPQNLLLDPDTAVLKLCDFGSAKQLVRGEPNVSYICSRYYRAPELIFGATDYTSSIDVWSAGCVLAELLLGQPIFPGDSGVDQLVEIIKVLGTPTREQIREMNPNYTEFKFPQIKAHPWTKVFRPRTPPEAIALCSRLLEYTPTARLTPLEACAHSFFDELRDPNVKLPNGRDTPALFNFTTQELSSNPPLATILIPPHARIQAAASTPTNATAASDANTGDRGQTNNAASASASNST

[6] = biological target: Interleukin-1 receptor-associated kinase 4 (Homo sapiens, UniProt Q9NWZ3); type: functional
[7] = biological target: Cell division cycle 7-related protein kinase (Homo sapiens, UniProt O00311); type: functional;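 also: value obtained from a kinome-wide kinase panel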
[8] = biological target: Dual specificity protein kinase CLK4 (Homo sapiens, UniProt Q9HAZ1); type: functional
[9] = biological target: MAP kinase-interacting serine/threonine-protein kinase 2 (Homo sapiens, UniProt Q9HBH9); type: functional
[10] = biological target: cAMP-dependent protein kinase catalytic subunit alpha (Homo sapiens, UniProt P17612); type: functional
[11] = biological target: Serine/threonine-protein kinase pim-1 (Homo sapiens, UniProt P11309); type: functional
Serine/threonine-protein kinase pim-1, sequence (P11309 whole entry): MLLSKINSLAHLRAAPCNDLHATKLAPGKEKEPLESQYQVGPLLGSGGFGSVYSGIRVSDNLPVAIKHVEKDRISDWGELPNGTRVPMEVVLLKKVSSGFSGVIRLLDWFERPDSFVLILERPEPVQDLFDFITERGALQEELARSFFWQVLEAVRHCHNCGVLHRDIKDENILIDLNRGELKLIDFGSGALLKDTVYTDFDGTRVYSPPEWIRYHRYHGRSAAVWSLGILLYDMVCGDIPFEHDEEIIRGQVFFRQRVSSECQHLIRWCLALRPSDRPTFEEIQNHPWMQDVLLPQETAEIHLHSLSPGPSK

[12] = biological target: Mitogen-activated protein kinase kinase kinase kinase 4 (Homo sapiens, UniProt O95819); type: functional
Mitogen-activated protein kinase kinase kinase kinase 4, sequence (O95819 whole entry): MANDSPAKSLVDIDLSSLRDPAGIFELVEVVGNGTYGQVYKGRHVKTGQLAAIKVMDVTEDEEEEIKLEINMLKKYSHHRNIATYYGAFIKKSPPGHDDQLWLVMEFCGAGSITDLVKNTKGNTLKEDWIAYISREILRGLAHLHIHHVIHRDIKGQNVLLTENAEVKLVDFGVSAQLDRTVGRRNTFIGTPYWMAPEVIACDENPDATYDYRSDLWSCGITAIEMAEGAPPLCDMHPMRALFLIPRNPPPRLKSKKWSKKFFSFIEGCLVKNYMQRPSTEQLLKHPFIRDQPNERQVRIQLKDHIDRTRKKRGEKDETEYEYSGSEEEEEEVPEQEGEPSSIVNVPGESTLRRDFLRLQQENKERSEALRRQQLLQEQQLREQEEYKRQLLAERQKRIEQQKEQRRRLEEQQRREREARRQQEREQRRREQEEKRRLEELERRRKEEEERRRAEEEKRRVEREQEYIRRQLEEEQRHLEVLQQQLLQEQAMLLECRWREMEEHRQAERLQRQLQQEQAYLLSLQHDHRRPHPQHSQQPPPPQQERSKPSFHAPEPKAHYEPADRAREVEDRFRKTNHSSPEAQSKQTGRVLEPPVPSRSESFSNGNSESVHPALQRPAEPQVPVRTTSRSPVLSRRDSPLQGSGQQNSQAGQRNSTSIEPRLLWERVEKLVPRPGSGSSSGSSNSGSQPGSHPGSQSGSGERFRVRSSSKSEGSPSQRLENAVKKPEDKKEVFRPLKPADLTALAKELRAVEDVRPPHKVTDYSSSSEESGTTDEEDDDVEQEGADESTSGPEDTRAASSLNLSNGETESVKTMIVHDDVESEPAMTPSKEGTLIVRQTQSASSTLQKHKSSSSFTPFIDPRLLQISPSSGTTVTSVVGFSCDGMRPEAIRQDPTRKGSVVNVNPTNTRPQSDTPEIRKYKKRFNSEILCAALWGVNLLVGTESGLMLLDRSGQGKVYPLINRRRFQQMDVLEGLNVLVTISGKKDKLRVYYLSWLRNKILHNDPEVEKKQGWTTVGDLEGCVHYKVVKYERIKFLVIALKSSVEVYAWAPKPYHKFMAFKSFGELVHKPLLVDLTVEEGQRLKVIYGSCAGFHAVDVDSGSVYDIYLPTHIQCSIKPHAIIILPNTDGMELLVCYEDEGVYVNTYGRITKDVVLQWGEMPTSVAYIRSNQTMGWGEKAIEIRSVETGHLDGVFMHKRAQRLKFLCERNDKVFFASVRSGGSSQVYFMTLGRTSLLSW

Candida albicans [13] = experiment: fluconazole-resistant Candida strain growth inhibitors – CaCi-8 strain, dry powder, set 4, dose response (AID 488950); type: functional, organism-based
Candida albicans [14] = experiment: Candida growth inhibition combined with fluconazole – CaCi-2 strain, Alamar Blue, dry powder, set 3, dose response (AID 488907); type: functional, organism-based
Candida albicans [15] = experiment: single-agent toxicity toward C. albicans – CaCi-2 strain, no fluconazole, dry powder, set 4, counter-screen for reversing antifungal drug resistance, dose response (AID 488932); type: functional, organism-based
Candida albicans [16] = experiment: resistant Candida growth with fluconazole co-treatment – CaCi-8 strain, Alamar Blue, dry powder, set 3, dose response (AID 488905); type: functional, organism-based
Candida albicans [17] = experiment: C. albicans growth inhibition with fluconazole – CaCi-2 strain, Alamar Blue, dry powder, set 4, dose response (AID 488943); type: functional, organism-based

Phospholipase D2, sequence (O14939 whole entry): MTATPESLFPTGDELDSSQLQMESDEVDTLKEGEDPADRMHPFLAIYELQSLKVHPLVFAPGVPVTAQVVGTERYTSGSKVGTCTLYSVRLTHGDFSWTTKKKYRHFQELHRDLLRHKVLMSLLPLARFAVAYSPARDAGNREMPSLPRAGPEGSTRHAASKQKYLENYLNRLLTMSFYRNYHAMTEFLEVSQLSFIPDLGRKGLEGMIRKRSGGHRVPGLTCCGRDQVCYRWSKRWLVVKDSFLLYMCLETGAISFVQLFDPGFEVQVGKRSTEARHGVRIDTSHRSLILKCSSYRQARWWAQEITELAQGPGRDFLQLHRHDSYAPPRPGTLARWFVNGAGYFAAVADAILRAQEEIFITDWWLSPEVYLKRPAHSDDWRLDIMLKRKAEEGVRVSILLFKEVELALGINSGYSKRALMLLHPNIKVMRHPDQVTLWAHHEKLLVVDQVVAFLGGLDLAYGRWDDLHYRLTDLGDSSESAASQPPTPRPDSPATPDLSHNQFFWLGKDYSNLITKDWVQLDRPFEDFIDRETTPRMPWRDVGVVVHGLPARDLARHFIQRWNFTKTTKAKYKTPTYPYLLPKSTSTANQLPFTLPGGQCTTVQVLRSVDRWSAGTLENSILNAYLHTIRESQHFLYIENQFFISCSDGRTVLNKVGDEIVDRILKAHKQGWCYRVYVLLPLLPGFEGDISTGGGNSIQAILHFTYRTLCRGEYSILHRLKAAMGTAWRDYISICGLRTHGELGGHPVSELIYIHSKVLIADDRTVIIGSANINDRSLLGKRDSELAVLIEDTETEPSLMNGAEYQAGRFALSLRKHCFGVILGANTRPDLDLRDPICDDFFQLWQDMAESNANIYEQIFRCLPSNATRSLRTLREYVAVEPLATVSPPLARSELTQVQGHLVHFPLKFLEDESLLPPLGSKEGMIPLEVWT

Compound: O=C(NCCN1CCC(n2c(=O)[nH]c3ccccc32)CC1)c1cc2ccccc2c2ccccc12
- IC50 (Phospholipase D2): 420 nM (active)
- IC50 (Phospholipase D1): 16 nM (active)

- EC50 [1]: 106 nM (active)
- EC50 [2]: 13700 nM (inactive)
- EC50 [3]: 180 nM (active)
Compound: CC/N=C1/SC(=Cc2cc(C)n(Cc3ccccc3OC)c2C)C(=O)N1CC

- Ki [4]: 31.6 nM (active)
- Ki [5]: 20 nM (active)
- Ki [6]: 631 nM (active)
- Ki [7]: 7.94 nM (active)
- Ki [8]: 3.98 nM (active)
- Ki [9]: 200 nM (active)
- Ki [10]: 3980 nM (active)
- Ki [11]: 251 nM (active)
- Ki [12]: 39.8 nM (active)
Compound: c1ccc(Cn2cc(-c3ccc4[nH]nc(-c5ccccc5)c4c3)nn2)cc1

Compound: O=C(c1ccc(Cl)cc1)N1CCN(c2nccs2)CC1
- AC50 (Candida albicans [13]): 3770 nM (active)
- AC50 (Candida albicans [14]): 555 nM (active)
- AC50 (Candida albicans [15]): 195000 nM (active)
- AC50 (Candida albicans [16]): 20000 nM (active)
- AC50 (Candida albicans [17]): 3240 nM (active)
